The results in this text go back to US9340590B2 (priority 2011, dated 2016).

The target of assay [1] is hNav1.5 (Homo sapiens, UniProt Q14524). Briefly: cell-based.
In assay [2] the target is hNav1.3 (Homo sapiens, UniProt Q9NY46). The experiment in a line: cell-based. The following applies: IonWorks Quattro, read-out: IWQ Use Nav1.3. (Patch clamp records ionic current or voltage across a cell membrane.)
[3] abbreviates: IonWorks Quattro, Use, read-out: IWQ Use Nav1.5.

Where two headings read alike, the source gives them in different places. Positions of bridges follow the written chain, without caps; N, C: chain ends. Non-standard residues stand in square brackets, D forms with d. Residues, ends and D or L forms follow the SMILES beside them. 1Nal = N[C@@H](Cc1cccc2ccccc12)C(=O)O

hNav1.5, sequence (Q14524 whole entry, looked up): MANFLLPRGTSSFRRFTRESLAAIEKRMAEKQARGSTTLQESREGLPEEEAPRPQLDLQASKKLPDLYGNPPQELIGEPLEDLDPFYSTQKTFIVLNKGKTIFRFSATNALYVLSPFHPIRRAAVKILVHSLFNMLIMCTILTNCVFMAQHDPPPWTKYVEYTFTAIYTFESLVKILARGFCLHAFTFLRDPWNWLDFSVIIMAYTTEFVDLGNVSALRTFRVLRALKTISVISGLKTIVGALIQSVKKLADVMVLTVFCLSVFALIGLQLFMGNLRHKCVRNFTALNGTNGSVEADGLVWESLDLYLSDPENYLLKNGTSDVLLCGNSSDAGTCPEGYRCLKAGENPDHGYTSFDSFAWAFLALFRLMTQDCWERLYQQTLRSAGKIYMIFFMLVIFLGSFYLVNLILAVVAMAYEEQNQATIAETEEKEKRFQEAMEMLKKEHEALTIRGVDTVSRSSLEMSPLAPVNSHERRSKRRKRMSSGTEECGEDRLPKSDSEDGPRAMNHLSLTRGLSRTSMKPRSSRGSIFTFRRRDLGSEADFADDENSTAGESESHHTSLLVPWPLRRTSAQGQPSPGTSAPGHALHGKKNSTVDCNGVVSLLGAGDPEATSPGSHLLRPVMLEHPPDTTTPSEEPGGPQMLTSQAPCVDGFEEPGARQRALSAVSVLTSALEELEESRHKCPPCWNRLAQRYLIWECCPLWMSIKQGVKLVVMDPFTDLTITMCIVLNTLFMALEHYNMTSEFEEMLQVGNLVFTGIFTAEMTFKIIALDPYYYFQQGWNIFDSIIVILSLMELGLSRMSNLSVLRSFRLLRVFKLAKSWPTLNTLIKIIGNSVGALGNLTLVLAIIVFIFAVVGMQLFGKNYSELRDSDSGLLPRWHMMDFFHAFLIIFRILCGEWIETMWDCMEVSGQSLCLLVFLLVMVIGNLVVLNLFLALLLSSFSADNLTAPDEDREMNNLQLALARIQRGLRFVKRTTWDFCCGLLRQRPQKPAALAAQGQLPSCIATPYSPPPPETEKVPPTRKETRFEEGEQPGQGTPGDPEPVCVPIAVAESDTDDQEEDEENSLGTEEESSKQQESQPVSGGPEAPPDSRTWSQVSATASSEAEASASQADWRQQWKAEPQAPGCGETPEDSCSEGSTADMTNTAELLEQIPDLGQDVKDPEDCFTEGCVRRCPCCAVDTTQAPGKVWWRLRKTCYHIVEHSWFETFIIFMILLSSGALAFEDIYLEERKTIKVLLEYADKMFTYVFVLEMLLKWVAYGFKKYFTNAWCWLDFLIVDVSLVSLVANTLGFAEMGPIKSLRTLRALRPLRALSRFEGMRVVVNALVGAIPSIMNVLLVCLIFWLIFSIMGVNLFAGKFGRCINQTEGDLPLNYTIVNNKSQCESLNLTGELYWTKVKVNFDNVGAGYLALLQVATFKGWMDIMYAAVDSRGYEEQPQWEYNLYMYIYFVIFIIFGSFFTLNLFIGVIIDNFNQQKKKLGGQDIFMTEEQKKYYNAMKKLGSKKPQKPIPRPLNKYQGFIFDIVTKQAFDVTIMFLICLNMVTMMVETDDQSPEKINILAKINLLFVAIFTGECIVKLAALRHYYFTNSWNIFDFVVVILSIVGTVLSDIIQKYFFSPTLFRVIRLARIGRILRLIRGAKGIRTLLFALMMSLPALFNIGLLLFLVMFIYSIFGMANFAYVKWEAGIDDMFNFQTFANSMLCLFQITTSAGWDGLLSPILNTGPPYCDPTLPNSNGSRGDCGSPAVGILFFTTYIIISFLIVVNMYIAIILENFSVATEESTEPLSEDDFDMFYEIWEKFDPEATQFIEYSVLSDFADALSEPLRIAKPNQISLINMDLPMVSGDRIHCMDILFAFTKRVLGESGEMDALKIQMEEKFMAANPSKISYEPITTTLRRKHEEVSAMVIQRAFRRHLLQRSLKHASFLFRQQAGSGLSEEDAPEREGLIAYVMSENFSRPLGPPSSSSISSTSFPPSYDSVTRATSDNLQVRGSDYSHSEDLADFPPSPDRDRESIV
hNav1.3, sequence (Q9NY46 whole entry, looked up): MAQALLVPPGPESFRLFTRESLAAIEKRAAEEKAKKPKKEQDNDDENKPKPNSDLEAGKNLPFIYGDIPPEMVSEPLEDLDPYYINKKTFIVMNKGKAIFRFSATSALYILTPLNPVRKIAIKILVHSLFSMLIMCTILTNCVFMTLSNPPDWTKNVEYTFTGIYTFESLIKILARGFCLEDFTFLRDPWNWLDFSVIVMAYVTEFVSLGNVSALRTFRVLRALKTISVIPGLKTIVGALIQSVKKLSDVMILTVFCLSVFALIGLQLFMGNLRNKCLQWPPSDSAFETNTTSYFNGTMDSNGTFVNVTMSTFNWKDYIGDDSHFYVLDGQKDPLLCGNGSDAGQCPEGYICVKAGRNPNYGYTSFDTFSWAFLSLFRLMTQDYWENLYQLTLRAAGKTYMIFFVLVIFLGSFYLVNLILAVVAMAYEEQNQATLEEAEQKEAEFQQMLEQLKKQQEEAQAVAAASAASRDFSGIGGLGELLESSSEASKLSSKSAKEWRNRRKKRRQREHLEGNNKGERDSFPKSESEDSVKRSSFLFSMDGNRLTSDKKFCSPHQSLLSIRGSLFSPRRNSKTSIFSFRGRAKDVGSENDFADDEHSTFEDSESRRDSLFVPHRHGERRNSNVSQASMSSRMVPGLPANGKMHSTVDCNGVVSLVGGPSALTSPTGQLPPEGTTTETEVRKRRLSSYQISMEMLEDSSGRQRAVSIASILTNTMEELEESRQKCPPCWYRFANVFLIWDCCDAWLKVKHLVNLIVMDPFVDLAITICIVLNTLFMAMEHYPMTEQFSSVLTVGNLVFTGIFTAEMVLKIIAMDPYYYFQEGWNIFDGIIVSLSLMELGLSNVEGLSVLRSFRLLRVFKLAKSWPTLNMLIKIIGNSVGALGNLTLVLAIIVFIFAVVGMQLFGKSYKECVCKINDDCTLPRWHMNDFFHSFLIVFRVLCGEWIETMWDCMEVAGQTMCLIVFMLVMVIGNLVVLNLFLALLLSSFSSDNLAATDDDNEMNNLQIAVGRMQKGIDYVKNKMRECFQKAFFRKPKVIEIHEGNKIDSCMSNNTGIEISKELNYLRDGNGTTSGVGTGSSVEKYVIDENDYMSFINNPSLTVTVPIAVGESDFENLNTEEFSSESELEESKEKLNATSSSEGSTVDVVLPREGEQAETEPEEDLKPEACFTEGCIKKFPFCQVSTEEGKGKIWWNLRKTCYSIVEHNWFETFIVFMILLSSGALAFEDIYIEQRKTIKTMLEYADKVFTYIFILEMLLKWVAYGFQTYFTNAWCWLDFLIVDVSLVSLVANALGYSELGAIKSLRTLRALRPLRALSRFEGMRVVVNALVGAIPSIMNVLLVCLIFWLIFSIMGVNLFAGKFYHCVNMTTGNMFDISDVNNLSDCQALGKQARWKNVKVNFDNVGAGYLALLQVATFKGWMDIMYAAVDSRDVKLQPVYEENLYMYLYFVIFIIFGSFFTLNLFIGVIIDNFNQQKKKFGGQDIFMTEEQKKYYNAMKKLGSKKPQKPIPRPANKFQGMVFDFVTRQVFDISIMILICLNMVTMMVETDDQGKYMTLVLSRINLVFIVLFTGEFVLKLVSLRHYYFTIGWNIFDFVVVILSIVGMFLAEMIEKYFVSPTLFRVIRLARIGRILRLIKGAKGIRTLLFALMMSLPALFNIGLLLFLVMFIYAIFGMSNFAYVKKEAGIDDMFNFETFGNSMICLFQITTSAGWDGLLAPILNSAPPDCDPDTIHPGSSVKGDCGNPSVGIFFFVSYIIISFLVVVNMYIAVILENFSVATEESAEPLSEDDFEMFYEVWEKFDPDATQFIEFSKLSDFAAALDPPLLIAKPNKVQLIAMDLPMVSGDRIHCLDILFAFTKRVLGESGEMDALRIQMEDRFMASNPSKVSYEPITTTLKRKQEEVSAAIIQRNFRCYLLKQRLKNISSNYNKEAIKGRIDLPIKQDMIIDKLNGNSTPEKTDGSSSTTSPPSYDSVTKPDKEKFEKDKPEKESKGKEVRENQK

On to `CC[C@H](C)[C@@H]1NC(=O)[C@@H]2CSSC[C@@H]3NC(=O)[C@H](C(C)C)NC(=O)[C@H](CC(C)C)NC(=O)[C@H](CC(N)=O)NC(=O)[C@@H]4CCCN4C(=O)[C@H](CCC(=O)O)NC(=O)[C@H](CSSC[C@H](NC(=O)[C@@H](N)CC(=O)O)C(=O)N[C@@H](CC(C)C)C(=O)NCC(=O)N[C@@H](Cc4ccccc4)C(=O)N[C@@H](CCSC)C(=O)N[C@@H](CCCNC(=N)N)C(=O)N[C@@H](CCCCN)C(=O)N2)NC(=O)[C@H](CSSC[C@@H](C(=O)N[C@@H](CCCCN)C(=O)N[C@@H](Cc2ccc(O)cc2)C(=O)N[C@H](C(=O)N[C@@H](Cc2ccccc2)C(N)=O)C(C)C)NC(=O)[C@H](Cc2c[nH]c4ccccc24)NC(=O)[C@H](CCCCN)NC(=O)[C@H](Cc2cnc[nH]2)NC(=O)[C@H]([C@@H](C)O)NC(=O)[C@H](CCCNC(=N)N)NC(=O)[C@H](CO)NC3=O)NC(=O)[C@H](CCCCN)NC(=O)[C@H](CC(=O)O)NC(=O)[C@H](CC(N)=O)NC(=O)[C@H](CC(=O)O)NC(=O)[C@@H]2CCCN2C1=O` [compound 148] (H-DCLGFMRKCIPDNDKCCEPNLVCSRTHKWCKYVF-NH2; disulfide 2-17, 9-23, 16-30), for which the IC50 in assay [1] (setting [3]) came out at 14.6 µM; in assay [2] (Use), 210 nM.
For the molecule `CC[C@H](C)[C@@H]1NC(=O)[C@@H]2CSSC[C@@H]3NC(=O)[C@H](C(C)C)NC(=O)[C@H](CC(C)C)NC(=O)[C@H](CC(N)=O)NC(=O)[C@H](CCCNC(=N)N)NC(=O)[C@H](CCCNC(=N)N)NC(=O)[C@H](CSSC[C@H](NC(=O)[C@@H](N)CC(=O)O)C(=O)N[C@@H](CC(C)C)C(=O)NCC(=O)N[C@@H](Cc4ccccc4)C(=O)N[C@@H](CCSC)C(=O)N[C@@H](CCCNC(=N)N)C(=O)N[C@@H](CCCCN)C(=O)N2)NC(=O)[C@H](CSSC[C@@H](C(=O)N[C@@H](CCCCN)C(=O)N[C@@H](Cc2ccc(O)cc2)C(=O)N[C@H](C(=O)N[C@@H](Cc2ccccc2)C(N)=O)C(C)C)NC(=O)[C@H](Cc2c[nH]c4ccccc24)NC(=O)[C@H](CCCCN)NC(=O)[C@H](Cc2cnc[nH]2)NC(=O)[C@H]([C@@H](C)O)NC(=O)[C@H](CCCNC(=N)N)NC(=O)[C@H](CO)NC3=O)NC(=O)[C@H](CCCCN)NC(=O)[C@H](CC(=O)O)NC(=O)[C@H](CC(N)=O)NC(=O)[C@H](CC(=O)O)NC(=O)[C@@H]2CCCN2C1=O` [compound 157] (H-DCLGFMRKCIPDNDKCCRRNLVCSRTHKWCKYVF-NH2; disulfide 2-17, 9-23, 16-30), the results for the IC50 in assay [1] (setting [3]) and in assay [2] (Use) were 6.16 µM and 60 nM, respectively.
For the molecule `CC[C@H](C)[C@@H]1NC(=O)[C@@H]2CSSC[C@@H]3NC(=O)[C@H](CCCNC(=N)N)NC(=O)[C@H](CC(C)C)NC(=O)[C@H](CC(N)=O)NC(=O)[C@@H]4CCCN4C(=O)[C@H](CCCNC(=N)N)NC(=O)[C@H](CSSC[C@H](NC(=O)[C@@H](N)CC(=O)O)C(=O)N[C@@H](CC(C)C)C(=O)NCC(=O)N[C@@H](Cc4ccccc4)C(=O)N[C@@H](CCSC)C(=O)N[C@@H](CCCNC(=N)N)C(=O)N[C@@H](CCCCN)C(=O)N2)NC(=O)[C@H](CSSC[C@@H](C(=O)N[C@@H](CCCCN)C(=O)N[C@@H](Cc2ccc(O)cc2)C(=O)N[C@H](C(=O)N[C@@H](Cc2ccccc2)C(N)=O)C(C)C)NC(=O)[C@H](Cc2c[nH]c4ccccc24)NC(=O)[C@H](CCCCN)NC(=O)[C@H](Cc2cnc[nH]2)NC(=O)[C@H]([C@@H](C)O)NC(=O)[C@H](CCCNC(=N)N)NC(=O)[C@H](CO)NC3=O)NC(=O)[C@H](CCCCN)NC(=O)[C@H](CC(=O)O)NC(=O)[C@H](CC(N)=O)NC(=O)[C@H](CC(=O)O)NC(=O)[C@@H]2CCCN2C1=O` [compound 158] (H-DCLGFMRKCIPDNDKCCRPNLRCSRTHKWCKYVF-NH2; disulfide 2-17, 9-23, 16-30), the IC50 in assay [1] (IWQ Use Nav1.5 (μM)) worked out at 8.2 µM; in assay [2] (Use), 30 nM.
For `CC[C@H](C)[C@@H]1NC(=O)[C@@H]2CSSC[C@@H]3NC(=O)[C@H](C(C)C)NC(=O)[C@H](CC(C)C)NC(=O)[C@H](CC(N)=O)NC(=O)[C@@H]4CCCN4C(=O)[C@H](CCCNC(=N)N)NC(=O)[C@H](CSSC[C@H](NC(=O)[C@@H](N)CC(=O)O)C(=O)N[C@@H](CC(C)C)C(=O)NCC(=O)N[C@@H](Cc4ccccc4)C(=O)N[C@@H](CCSC)C(=O)N[C@@H](CCCNC(=N)N)C(=O)N[C@@H](CCCCN)C(=O)N2)NC(=O)[C@H](CSSC[C@@H](C(=O)N[C@@H](CCCCN)C(=O)N[C@@H](CCCNC(=N)N)C(=O)N[C@H](C(=O)N[C@@H](Cc2ccccc2)C(N)=O)C(C)C)NC(=O)[C@H](Cc2c[nH]c4ccccc24)NC(=O)[C@H](CCCCN)NC(=O)[C@H](Cc2cnc[nH]2)NC(=O)[C@H]([C@@H](C)O)NC(=O)[C@H](CCCNC(=N)N)NC(=O)[C@H](CO)NC3=O)NC(=O)[C@H](CCCCN)NC(=O)[C@H](CC(=O)O)NC(=O)[C@H](CC(N)=O)NC(=O)[C@H](CC(=O)O)NC(=O)[C@@H]2CCCN2C1=O` [compound 159] (H-DCLGFMRKCIPDNDKCCRPNLVCSRTHKWCKRVF-NH2; disulfide 2-17, 9-23, 16-30), the IC50 in assay [1] (IWQ Use Nav1.5 (μM)) turned out to be 8.65 µM; in assay [2] (Table 25, use, […]), 870 nM.
The corresponding values for `CC[C@H](C)[C@@H]1NC(=O)[C@@H]2CSSC[C@@H]3NC(=O)[C@H](C(C)C)NC(=O)[C@H](CC(C)C)NC(=O)[C@H](CC(N)=O)NC(=O)[C@@H]4CCCN4C(=O)[C@H](CCCNC(=N)N)NC(=O)[C@H](CSSC[C@H](NC(=O)[C@@H](N)CC(=O)O)C(=O)N[C@@H](CC(C)C)C(=O)NCC(=O)N[C@@H](Cc4ccccc4)C(=O)N[C@@H](CCSC)C(=O)N[C@@H](CCCNC(=N)N)C(=O)N[C@@H](CCCCN)C(=O)N2)NC(=O)[C@H](CSSC[C@@H](C(=O)N[C@@H](CCCCN)C(=O)N[C@@H](Cc2cccc4ccccc24)C(=O)N[C@H](C(=O)N[C@@H](Cc2ccccc2)C(N)=O)C(C)C)NC(=O)[C@H](Cc2c[nH]c4ccccc24)NC(=O)[C@H](CCCCN)NC(=O)[C@H](Cc2cnc[nH]2)NC(=O)[C@H]([C@@H](C)O)NC(=O)[C@H](CCCNC(=N)N)NC(=O)[C@H](CO)NC3=O)NC(=O)[C@H](CCCCN)NC(=O)[C@H](CC(=O)O)NC(=O)[C@H](CC(N)=O)NC(=O)[C@H](CC(=O)O)NC(=O)[C@@H]2CCCN2C1=O` [compound 167] (H-DCLGFMRKCIPDNDKCCRPNLVCSRTHKWCK[1Nal]VF-NH2; disulfide 2-17, 9-23, 16-30) are 3.96 µM and 1 nM.
For the molecule `CSCC[C@@H]1NC(=O)[C@H](Cc2ccccc2)NC(=O)CNC(=O)[C@H](CC(C)C)NC(=O)[C@@H](NC(=O)[C@@H](N)CC(=O)O)CSSC[C@@H]2NC(=O)[C@@H]3CSSC[C@@H](C(=O)N[C@@H](CCCCN)C(=O)N[C@@H](Cc4ccc(O)cc4)C(=O)N[C@H](C(=O)N[C@@H](Cc4ccccc4)C(N)=O)C(C)C)NC(=O)[C@H](Cc4c[nH]c5ccccc45)NC(=O)[C@H](CCCCN)NC(=O)[C@H](Cc4cnc[nH]4)NC(=O)[C@H]([C@@H](C)O)NC(=O)[C@H](CCCNC(=N)N)NC(=O)[C@H](CO)NC(=O)[C@H](CSSC[C@H](NC(=O)[C@H](CCCCN)NC(=O)[C@H](CCCNC(=N)N)NC1=O)C(=O)N[C@@H](Cc1ccc(O)cc1)C(=O)N1CCC[C@H]1C(=O)N[C@@H](CC(=O)O)C(=O)N[C@@H](CC(N)=O)C(=O)N[C@@H](CC(=O)O)C(=O)N[C@@H](CCCCN)C(=O)N3)NC(=O)[C@H](C(C)C)NC(=O)[C@H](CC(C)C)NC(=O)[C@H](CC(N)=O)NC(=O)[C@@H]1CCCN1C(=O)[C@H](CCCNC(=N)N)NC2=O` [compound 299] (H-DCLGFMRKCYPDNDKCCRPNLVCSRTHKWCKYVF-NH2; disulfide 2-17, 9-23, 16-30), the IC50 in assay [1] (setting [3]) turned out to be 5.41 µM; in assay [2] (Use), 70 nM.
